Experimental data reported in ChEMBL document CHEMBL4321836, “Discovery of BAY-298 and BAY-899: Tetrahydro-1,6-naphthyridine-Based, Potent, and Selective Antagonists of the Luteinizing Hormone Receptor Which Reduce Sex Hormone Levels in Vivo” (J Med Chem, 2019).

Legend:
[1] = biological target: Lutropin-choriogonadotropic hormone receptor (Rattus norvegicus, UniProt P16235); assay: Antagonist activity at rat luteinizing hormone receptor expressed in rat ovary granulosa GLHR15 cell suspension assessed as reduction in agonist-induced cAMP production preincubated for 30 mins followed by agonist solution addition after 30 mins by cell based TR-FRET assay; format: functional
Sequence of Lutropin-choriogonadotropic hormone receptor (P16235 whole entry): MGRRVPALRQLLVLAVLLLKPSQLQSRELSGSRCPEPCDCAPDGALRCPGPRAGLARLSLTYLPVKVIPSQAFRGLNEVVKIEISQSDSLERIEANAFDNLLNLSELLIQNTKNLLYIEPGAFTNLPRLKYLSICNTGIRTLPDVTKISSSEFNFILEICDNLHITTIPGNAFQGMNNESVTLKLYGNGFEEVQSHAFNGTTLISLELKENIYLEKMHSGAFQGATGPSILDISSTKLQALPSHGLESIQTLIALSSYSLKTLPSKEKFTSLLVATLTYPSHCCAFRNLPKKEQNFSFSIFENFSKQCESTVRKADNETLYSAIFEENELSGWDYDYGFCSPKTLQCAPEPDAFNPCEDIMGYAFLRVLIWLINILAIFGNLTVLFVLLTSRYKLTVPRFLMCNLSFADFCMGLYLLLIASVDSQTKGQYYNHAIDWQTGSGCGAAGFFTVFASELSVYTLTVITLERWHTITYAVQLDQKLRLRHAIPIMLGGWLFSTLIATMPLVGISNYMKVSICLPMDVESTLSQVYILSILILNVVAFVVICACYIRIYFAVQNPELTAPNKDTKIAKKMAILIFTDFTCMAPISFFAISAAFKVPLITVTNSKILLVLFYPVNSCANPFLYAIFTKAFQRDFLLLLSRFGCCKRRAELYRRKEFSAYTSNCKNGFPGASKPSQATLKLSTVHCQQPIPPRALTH

Cytochrome P450 2C8 = Cytochrome P450 2C8 (Homo sapiens, UniProt P10632); assay: Inhibition of CYP2C8 in human liver microsomes using amodiaquine as substrate by LC-MS/MS analysis; format: ADME
Sequence of Cytochrome P450 2C8 (P10632 whole entry): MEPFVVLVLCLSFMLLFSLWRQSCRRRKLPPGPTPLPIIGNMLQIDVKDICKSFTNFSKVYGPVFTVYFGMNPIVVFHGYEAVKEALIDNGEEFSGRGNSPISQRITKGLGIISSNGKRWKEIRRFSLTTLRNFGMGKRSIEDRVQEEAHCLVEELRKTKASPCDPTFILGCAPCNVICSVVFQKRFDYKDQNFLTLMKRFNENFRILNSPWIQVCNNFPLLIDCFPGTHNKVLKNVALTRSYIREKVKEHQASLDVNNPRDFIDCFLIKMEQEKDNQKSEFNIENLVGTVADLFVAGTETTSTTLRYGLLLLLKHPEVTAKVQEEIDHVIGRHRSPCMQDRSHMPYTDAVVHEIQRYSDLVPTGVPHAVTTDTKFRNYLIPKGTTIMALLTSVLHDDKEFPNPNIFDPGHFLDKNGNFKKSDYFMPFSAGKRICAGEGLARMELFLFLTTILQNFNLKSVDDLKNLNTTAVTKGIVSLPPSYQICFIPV

Cytochrome P450 3A4 = Cytochrome P450 3A4 (Homo sapiens, UniProt P08684); assay: Inhibition of CYP3A4 in human liver microsomes using midazolam as substrate treated prior to substrate addition by LC-MS/MS analysis; format: ADME
Sequence of Cytochrome P450 3A4 (P08684 whole entry): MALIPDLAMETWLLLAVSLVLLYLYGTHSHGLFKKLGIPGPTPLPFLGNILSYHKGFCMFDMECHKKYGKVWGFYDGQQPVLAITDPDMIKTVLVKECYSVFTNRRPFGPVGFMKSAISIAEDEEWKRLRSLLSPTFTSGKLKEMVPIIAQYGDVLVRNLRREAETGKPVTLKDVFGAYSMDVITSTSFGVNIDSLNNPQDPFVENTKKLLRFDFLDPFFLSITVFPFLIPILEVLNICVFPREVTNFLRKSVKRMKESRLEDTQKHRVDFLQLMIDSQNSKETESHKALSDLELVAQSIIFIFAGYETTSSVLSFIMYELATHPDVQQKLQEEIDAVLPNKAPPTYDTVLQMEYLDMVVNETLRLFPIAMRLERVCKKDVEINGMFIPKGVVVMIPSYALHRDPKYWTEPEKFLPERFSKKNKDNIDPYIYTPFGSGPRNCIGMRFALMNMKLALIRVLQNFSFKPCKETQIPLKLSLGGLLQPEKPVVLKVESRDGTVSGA

[2] = Dose normalized Cmax in Wistar rat at 2 mg/kg, po after 8 to 72 hrs by LC-MS/MS analysis; format: ADME, organism-based; details: in vivo
[3] = biological target: T1, Adenosine receptor A2b (Homo sapiens) (UniProt P29275); assay: Antagonist activity at human A2B receptor expressed in HEK293 cells at 10 uM after 10 mins by HTRF assay relative to control; format: cell-based; set-up: scale not given: the % may be the effect or the level left
T1 sequence (whole entry): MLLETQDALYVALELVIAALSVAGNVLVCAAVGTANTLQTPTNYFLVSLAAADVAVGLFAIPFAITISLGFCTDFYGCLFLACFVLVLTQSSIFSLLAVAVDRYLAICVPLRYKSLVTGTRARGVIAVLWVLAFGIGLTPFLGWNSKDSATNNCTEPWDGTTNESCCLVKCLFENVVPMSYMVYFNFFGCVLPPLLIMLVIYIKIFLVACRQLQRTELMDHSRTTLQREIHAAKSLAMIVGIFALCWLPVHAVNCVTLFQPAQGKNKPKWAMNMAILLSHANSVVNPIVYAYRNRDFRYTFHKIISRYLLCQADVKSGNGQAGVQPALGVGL

[4] = biological target: T2, Alpha-1A adrenergic receptor (Homo sapiens) (UniProt P35348); assay: Antagonist activity at human alpha1A adrenergic receptor expressed in CHO-K1 cells at 10 uM by fluorimetric method relative to control; format: cell-based; set-up: scale not given: the % may be the effect or the level left
T2 sequence (whole entry): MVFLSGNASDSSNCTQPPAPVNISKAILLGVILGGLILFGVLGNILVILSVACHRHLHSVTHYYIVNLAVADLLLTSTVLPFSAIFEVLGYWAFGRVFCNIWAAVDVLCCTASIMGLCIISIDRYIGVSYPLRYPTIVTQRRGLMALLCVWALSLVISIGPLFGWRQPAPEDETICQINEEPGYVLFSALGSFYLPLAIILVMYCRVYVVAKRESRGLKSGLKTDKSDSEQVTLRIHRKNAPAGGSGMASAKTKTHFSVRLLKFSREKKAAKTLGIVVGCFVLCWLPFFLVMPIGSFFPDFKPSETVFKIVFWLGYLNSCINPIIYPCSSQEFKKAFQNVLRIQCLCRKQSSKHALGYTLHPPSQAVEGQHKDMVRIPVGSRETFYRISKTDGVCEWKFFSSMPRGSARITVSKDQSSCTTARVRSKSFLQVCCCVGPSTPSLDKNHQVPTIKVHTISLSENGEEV

[5] = biological target: T3, Alpha-2A adrenergic receptor (Homo sapiens) (UniProt P08913); assay: Agonist activity at human alpha2A adrenergic receptor expressed in Chem-1 cells at 10 uM by fluorimetric method relative to control; format: cell-based
T3 sequence (whole entry): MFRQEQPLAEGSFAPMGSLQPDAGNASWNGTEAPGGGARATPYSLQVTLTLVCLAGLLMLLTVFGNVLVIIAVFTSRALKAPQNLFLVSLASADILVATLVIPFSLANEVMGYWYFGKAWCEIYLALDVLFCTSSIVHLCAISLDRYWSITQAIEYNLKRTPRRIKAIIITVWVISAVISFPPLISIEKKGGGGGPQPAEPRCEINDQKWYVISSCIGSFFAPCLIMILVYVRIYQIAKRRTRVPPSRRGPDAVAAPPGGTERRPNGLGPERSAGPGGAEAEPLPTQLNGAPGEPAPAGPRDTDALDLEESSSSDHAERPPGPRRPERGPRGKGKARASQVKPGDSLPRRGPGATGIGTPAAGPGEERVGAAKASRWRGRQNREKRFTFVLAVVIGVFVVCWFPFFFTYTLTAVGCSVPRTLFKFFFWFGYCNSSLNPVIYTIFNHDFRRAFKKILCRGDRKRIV

[6] = biological target: Beta-2 adrenergic receptor (Homo sapiens) (UniProt P07550); assay: Agonist activity at human beta2 adrenergic receptor expressed in CHO-K1 cells at 10 uM after 30 mins HTRF assay relative to control; format: cell-based
Sequence of Beta-2 adrenergic receptor (Homo sapiens) (P07550 whole entry, looked up): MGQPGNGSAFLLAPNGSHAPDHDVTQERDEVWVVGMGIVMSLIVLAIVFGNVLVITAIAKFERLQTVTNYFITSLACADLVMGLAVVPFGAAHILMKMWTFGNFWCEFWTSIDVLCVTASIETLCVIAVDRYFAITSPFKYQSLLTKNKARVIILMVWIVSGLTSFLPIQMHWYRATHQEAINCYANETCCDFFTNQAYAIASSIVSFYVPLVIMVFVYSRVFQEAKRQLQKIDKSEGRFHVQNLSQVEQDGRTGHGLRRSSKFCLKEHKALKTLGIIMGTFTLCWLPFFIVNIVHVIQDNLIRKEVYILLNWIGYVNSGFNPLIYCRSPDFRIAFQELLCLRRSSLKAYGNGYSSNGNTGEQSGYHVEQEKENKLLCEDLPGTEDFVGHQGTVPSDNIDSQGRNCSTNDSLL

[7] = biological target: Cannabinoid receptor 1 (Homo sapiens) (UniProt P21554); assay: Agonist activity at human CB1 receptor expressed in CHO-K1 cells at 10 uM after 20 mins HTRF assay relative to control; format: cell-based
Sequence of Cannabinoid receptor 1 (Homo sapiens) (P21554 whole entry): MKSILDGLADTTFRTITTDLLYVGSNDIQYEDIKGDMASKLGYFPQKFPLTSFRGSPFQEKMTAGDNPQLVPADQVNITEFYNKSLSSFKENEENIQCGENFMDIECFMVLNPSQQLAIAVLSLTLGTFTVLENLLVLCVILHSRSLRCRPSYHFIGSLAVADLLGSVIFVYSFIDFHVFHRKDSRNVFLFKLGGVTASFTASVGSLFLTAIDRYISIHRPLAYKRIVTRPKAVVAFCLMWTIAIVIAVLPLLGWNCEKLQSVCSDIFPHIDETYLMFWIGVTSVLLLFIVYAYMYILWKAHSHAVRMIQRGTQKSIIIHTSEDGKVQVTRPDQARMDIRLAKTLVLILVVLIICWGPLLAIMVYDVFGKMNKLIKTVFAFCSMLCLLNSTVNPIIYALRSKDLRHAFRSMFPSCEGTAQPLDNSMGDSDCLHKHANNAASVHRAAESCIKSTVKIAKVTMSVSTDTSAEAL

[8] = biological target: Cannabinoid receptor 1 (Homo sapiens) (UniProt P21554); assay: Antagonist activity at human CB1 receptor expressed in CHO-K1 cells at 10 uM after 20 mins HTRF assay relative to control; format: cell-based; set-up: scale not given: the % may be the effect or the level left
[9] = biological target: Histamine H1 receptor (Homo sapiens) (UniProt P35367); assay: Agonist activity at human histamine H1 receptor expressed in HEK293 cells at 10 uM by Fluorimetric method relative to control; format: cell-based
Sequence of Histamine H1 receptor (Homo sapiens) (P35367 whole entry): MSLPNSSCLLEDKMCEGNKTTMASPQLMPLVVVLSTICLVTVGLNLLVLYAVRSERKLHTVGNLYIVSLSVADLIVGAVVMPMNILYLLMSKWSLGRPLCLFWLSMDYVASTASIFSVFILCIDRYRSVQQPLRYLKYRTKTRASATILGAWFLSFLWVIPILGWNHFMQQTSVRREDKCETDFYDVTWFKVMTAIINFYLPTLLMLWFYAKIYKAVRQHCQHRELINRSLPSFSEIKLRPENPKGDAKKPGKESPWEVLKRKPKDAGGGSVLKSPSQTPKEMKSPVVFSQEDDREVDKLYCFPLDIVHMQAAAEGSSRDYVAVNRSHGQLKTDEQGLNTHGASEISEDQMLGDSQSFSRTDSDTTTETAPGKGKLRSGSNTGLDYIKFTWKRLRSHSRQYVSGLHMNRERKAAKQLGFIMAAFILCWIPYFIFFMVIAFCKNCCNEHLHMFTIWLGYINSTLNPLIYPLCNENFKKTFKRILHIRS

[10] = biological target: Histamine H1 receptor (Homo sapiens) (UniProt P35367); assay: Antagonist activity at human histamine H1 receptor expressed in HEK293 cells at 10 uM by Fluorimetric method relative to control; format: cell-based; set-up: scale not given: the % may be the effect or the level left
[11] = biological target: Melanocortin receptor 4 (Homo sapiens) (UniProt P32245); assay: Agonist activity at human MC4 receptor expressed in CHO-K1 cells at 10 uM after 30 mins by HTRF assay relative to control; format: cell-based
Sequence of Melanocortin receptor 4 (Homo sapiens) (P32245 whole entry): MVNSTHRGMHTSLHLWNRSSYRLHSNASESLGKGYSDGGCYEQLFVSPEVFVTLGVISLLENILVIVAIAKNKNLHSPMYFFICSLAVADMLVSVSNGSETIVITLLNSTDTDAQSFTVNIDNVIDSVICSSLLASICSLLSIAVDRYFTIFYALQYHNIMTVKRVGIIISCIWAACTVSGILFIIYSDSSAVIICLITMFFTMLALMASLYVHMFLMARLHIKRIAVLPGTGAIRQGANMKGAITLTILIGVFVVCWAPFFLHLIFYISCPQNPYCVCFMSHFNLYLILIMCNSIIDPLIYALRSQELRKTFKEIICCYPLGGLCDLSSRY

[12] = biological target: Substance-P receptor (Homo sapiens) (UniProt P25103); assay: Agonist activity at human NK1 receptor expressed in U373 MG cells at 10 uM by fluorimetric method relative to control; format: cell-based; details: U-373MG ATCC
Sequence of Substance-P receptor (Homo sapiens) (P25103 whole entry): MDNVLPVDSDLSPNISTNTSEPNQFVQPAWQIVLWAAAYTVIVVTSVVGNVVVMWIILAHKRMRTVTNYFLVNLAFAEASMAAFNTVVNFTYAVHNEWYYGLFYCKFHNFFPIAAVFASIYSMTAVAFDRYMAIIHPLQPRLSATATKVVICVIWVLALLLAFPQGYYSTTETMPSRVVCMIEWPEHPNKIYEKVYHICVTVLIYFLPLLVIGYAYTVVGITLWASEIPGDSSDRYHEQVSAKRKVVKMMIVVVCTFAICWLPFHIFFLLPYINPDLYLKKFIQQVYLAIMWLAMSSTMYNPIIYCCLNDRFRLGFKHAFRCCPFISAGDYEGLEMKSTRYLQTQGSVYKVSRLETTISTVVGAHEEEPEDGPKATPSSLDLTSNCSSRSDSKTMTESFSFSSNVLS

[13] = biological target: Kappa-type opioid receptor (Homo sapiens) (UniProt P41145); assay: Antagonist activity at human kappa opioid receptor at 10 uM by Spectrophotometric method relative to control; set-up: scale not given: the % may be the effect or the level left
Sequence of Kappa-type opioid receptor (Homo sapiens) (P41145 whole entry): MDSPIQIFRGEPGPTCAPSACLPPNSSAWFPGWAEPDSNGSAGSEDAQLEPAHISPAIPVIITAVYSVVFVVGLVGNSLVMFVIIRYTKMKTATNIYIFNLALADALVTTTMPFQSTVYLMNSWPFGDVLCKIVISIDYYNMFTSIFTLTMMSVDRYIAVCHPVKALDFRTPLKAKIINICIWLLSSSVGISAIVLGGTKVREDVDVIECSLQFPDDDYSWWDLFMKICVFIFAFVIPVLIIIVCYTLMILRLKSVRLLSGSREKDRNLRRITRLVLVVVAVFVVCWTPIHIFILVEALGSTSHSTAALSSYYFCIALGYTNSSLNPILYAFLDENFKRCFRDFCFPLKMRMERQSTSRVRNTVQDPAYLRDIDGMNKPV

[14] = Toxicity in female rat assessed as effect on animal activity; details: in vivo
Rattus norvegicus = assay: Downregulation of estradiol level in proestrus staged-female rat serum at 12.5 mg/kg, po administered once daily for 8 days and measured by radioimmunoassay method (reference value: 144 pmol/L); format: functional

Compound | IC50 [1] | IC50 (Cytochrome P450 2C8) | IC50 (Cytochrome P450 3A4) | Cmax/dose [2] | Activity [3] | Activity [4] | Activity [5] | Activity [6] | Activity [7] | Activity [8] | Activity [9] | Activity [10] | Activity [11] | Activity [12] | Activity [13] | Activity [14] | Activity (Rattus norvegicus)
O=C(Nc1ccc(Oc2ccc(F)cc2)cc1)N1CCc2ncccc2[C@@H]1c1ccc(Cl)cc1 | 23 nM | 700 nM | > 20000 nM | 0.24 kg/L | < 70% | < 70% | < 70% | < 70% | < 70% | < 70% | < 70% | < 70% | < 70% | < 70% | < 70% | Non-Toxic | 57 pmol/L
O=C(Nc1cnc(Oc2ccc(F)cc2)nc1)N1CCc2ncccc2[C@@H]1c1ccc(F)cc1 [BAY-899] | 46 nM | 3100 nM | > 20000 nM | 0.066 kg/L | < 70% | < 70% | < 70% | < 70% | < 70% | < 70% | < 70% | < 70% | < 70% | < 70% | < 70% | Non-Toxic | 54 pmol/L
